Here are results for four compounds from patent US20240025946A1, “Cyclic Tetrapeptides and Metal Complexes Thereof” (priority 2020, published 2024).

In one data set the test system is DH5α E. coli. The data set can be described thus: In vivo recovery test: Pb detoxification of poisoned bacteria, colony counting. It is filed as cell-based. The conditions noted are these: for Recovery DH5α (%): highest concentration 120 mM (10 equiv.), Pb(NO3)2 12 mM, vs poisoned untreated cells, mean. On the procedure: (§1) Desalted peptides were then assessed for their ability to detoxify Pb (FIGS. 2a-d). The inventors designed two assays for rapid and reliable screening of potential CAs both in vivo on bacteria and then in vitro on human cell culture. Briefly, DH5a or HT-29 cells were first exposed to Pb(NO3)2 slightly below the minimal inhibitory concentration and then treated with various concentrations of the investigated CA, ranging from 0.1 to 10 equivalents. The viability of the cells was determined by colony counting or by crystal violet (Feoktistova et al, 2016), for the bacteria and the human cells, respectively, and was compared to poisoned cells that were not treated with any CA as the negative control. […] On the other hand, testing the compounds on human cells cannot be performed with insoluble compounds but is more relevant for medicinal purposes.
HRMS (ESI) m/z calculated for C16H26N4O4SNa^+ [M+Na]^+ 427.14442; found: 427.14447 In vivo recovery tests A single colony of DH5a E. coli WT cells was grown overnight at 37° C. and 220 rpm in Tris Minimal Medium (TMM, pH 6.0; 5 mL) without antibiotics. The culture was then diluted to an OD600 of 0.03 with additional TMM to a total volume of 5 mL, and its OD600 was monitored. Upon cell density of 0.25 (which was achieved after 3-5 h), 1 mL of the culture was transferred into a cell culture tube and was labeled as the positive control. To additional 3 mL of the culture, 36 μL of Pb(NO3)2 1 M were added (final concentration of 12 mM). Both cultures were shaken at 37° C. and 220 rpm for an additional 5 h.
Aqueous stock solutions of each CA were plated on freshly prepared agar-LB plates such that the final concentration of each compound is equal to 0.5, 1, 2, 5, and 10 equivalents, compared to the amount of Pb(NO3)2 in 50 μL pre-toxified culture. The stock solutions were prepared such that plating and equally spreading 30 μL of each solution will provide the desired amount of CA. To additional two plates, 30 μL of H2O was added.
50 μL of the pre-toxified culture were homogenously spread to each CA-containing plate, 5 h after adding the metal to the culture. The Pb-containing culture was also plated on one of the two H2O-containing plates and was labeled as the negative control. Lastly, 50 μL of the non-toxified culture were platted on the second H2O-containing plate and was labeled as positive control. All plates (positive and negative control and five plates for each examined compound) were then incubated at 37° C. overnight. The plates were then imaged, and the colonies were counted (with Vilber Quantum Visualization System). The recovery of each concentration of CA was calculated according to equation 1: […]
#CAx—number of colonies of pre-toxified culture in a plate containing X mM of CA
#NEG—number of colonies of pre-toxified culture in a plate containing no CA
(§2) Each experiment was performed on three independent occasions. Values are mean±SD of >3 repeats each performed in triplicate.

For data set [1], the system named is HT-29 cells. In words: In vitro recovery test: Pb detoxification of poisoned human cells, crystal violet. The format is cell-based. Conditions: for Recovery HT-29 (%): highest concentration 10 mM (5 equiv.), Pb(NO3)2 2 mM, vs poisoned untreated cells, mean, SD. On the procedure:
as §1
96-well plates were prepared such that every well contains 10,000 cells in 100 μL medium, and the cells were allowed to adhere overnight. To all wells but the positive control, 10 μL of 22 mM Pb(NO3)2 were added (final concentration 2 mM). 10 μL of H2O was added to the positive control wells. 60 min after addition of metal, 10 μL of each solution of the examined CA (2.4, 6, 12, 24, 48, and 120 mM) were added to reach final concentrations of 0.2, 0.5, 1, 2, 4, and 10 mM (which are 0.1, 0.25, 0.5, 1, 2, and 5 equivalents, respectively). To the positive control wells containing no metal and the negative control wells containing metal but no CA, 10 μL of H2O were added. Each condition was performed in triplicates. The plates were incubated at 37° C. and 5% CO2 for an additional 23 h, after which the medium was removed, washed with fresh medium and 50 μL of crystal violet solution (0.5% crystal violet powder in 20 mL MeOH and 80 mL H2O) to each well and the plates were gently shaken (60 rpm) for 20 min. The plates were then washed with H2O until no more unbound dye was observed and allowed to dry overnight. 200 μL of MeOH were added to each well, and the plates were gently shaken (60 rpm) for 20 min, after which their absorbance at 560 nm was read with a plate reader. The recovery of each concentration of CA was calculated according to equation 2:
(§3) A[CAx]—absorbance of the pre-toxified well in the presence of X mM of CA
(§4) A[blank]—absorbance of blank wells (contain nothing)
A[NEG]—absorbance of the pre-toxified well that contains no CA
as §2

The subject of data set [2] is HT-29 cells. In words: In vitro toxicity test, crystal violet. It is filed as cell-based, human. The conditions noted are these: HT-29, 24 h; for IC50: concentration at 50% viability, mean (SD), n.d. = not detected as it is too high. On the procedure: 96-well plates were prepared such that every well contains 10,000 cells in 100 μL medium, and the cells were allowed to adhere overnight.
To all wells but the positive control, 10 μL of each solution of the examined CA (2.4, 6, 12, 24, 48, and 120 mM) were added to reach final concentrations of 0.2, 0.5, 1, 2, 4, and 10 mM. To the positive control wells, 10 μL of H2O was added. Each condition was performed in triplicates. The plates were incubated at 37° C. and 5% CO2 for 24 h, after which the medium was removed, washed with fresh medium and 50 μL of crystal violet solution (0.5% crystal violet powder in 20 mL MeOH and 80 mL H2O) to each well and the plates were gently shaken (60 rpm) for 20 min. The plates were then washed with H2O until no more unbound dye was observed and allowed to dry overnight. 200 μL of MeOH were added to each well, and the plates were gently shaken (60 rpm) for 20 min, after which their absorbance at 560 nm was read with a plate reader. The toxicity of each concentration of CA was calculated according to equation 3:
as §3, §4
A[POS]—absorbance of well that contains no CA
as §2

The subject of a further data set is male mice (C57BL/6). The data set can be described thus: Pb-poisoned mice: blood lead level and urinary Pb by ICP-MS. Conditions: 30 mg kg^−1 day^−1, days 10-16; for BLL: blood on day 18, eight mice; for Urinary Pb (ppm): urine on day 18. It is filed as in vivo. On the procedure: Peptide 8a was then tested in mice. 40 male mice (C57BL/6) aged 6-8 weeks were provided with 20 mM Pb(OAc)2 solution as the sole water supply for seven days (days 1-7). This poisoning route mimics chronic exposure in humans. Two days after returning to clean water (day 9), they were randomly divided into five groups of eight mice. They received a single treatment per day for seven days (days 10-16) of either CaNa2EDTA, DMSA, or 8a at a concentration of 30 mg kg^−1 except for group 1 that served as the negative control (Table 3).
Blood samples (100 μL) were collected before dosing the mice on days 10-15 and on day 18, which is two days after the last dosing and the day by which the experiment was terminated. Urine was also collected from 34 animals on day 18 and was kept frozen until analysis.

Data set [3] is described as follows: Aqueous solubility of the peptides. The format is physicochemical. Conditions: soluble^b = with the addition of 2 equiv. NaOH or 1 equiv. of Ca(OH)2. An excerpt: Attempts to solubilize them, including in different pH conditions, formulation with PEG or co-solvent systems with DMSO failed. Therefore, two analogs of 1 where βAla is substituted by PAsp or PhGlu, to form peptides 1a and 1b, respectively, were synthesized. […] Their low activity might be related to either (a) competition in coordination with Pb^2+ by the two carboxylates, which destabilizes the complexation, or (b) a decrease in their metal selectivity and coordination alkali or alkaline earth metal ions.

[4] abbreviates: inhibition at the highest concentration (10 mM), mean, SD.

Where “and” joins values, the source holds several entries; their conditions need not be identical. Equal entries are not always repeated.

Regarding `O=C([O-])CN(CCN(CC(=O)[O-])CC(=O)[O-])CC(=O)[O-].[Ca+2].[Na+].[Na+]` [Na2CaEDTA], in the data set on DH5α E. coli, the “Recovery DH5α (%)” value was found to be 182%. Also, in the data set on HT-29 cells [1], the “Recovery HT-29 (%)” value was 95±16% and 95%. Further, 3.9 mM corresponded to half-maximal inhibition in the data set with HT-29 cells [2] (IC50). Besides, the “Toxicity Maximal inhibition (%)” value in the data set on HT-29 cells [2] (setting [4]) stood at 63%. Moreover, in the data set on male mice (C57BL/6) (IV), the “BLL” value was found to be 25.7 ± 1.6 µg/dL and the “Urinary Pb (ppm)” value worked out at 210 ± 30 ppm.

For `O=C1CCNC(=O)[C@H](Cc2c[nH]cn2)NC(=O)CCNC(=O)[C@H](Cc2c[nH]cn2)N1` [compound 4, His-βAla-His-βAla], the “Recovery DH5α (%)” value in the data set with DH5α E. coli was determined as 80%. In addition, the “Recovery HT-29 (%)” value with HT-29 cells [1] worked out at 106%. In the data set with HT-29 cells [2], the IC50 stood at 5.8 mM. For the same compound, the “Toxicity Maximal inhibition (%)” value with HT-29 cells [2] (setting [4]) came to 62%. Further, in data set [3], the Aqueous solubility entry is reported as “Soluble”.

Take `O=C(O)C(S)C(S)C(=O)O` (stereo not shown) [DMSA, dimercaptosuccinic acid]: the “Recovery DH5α (%)” value in the data set with DH5α E. coli is 165%. The “Recovery HT-29 (%)” value with HT-29 cells [1] was 110±10% and 110%. In the data set with HT-29 cells [2] (Homo sapiens), this compound showed an IC50 of 3.7 mM. Besides, in the data set on HT-29 cells [2] (Homo sapiens, inhibition at the highest concentration (10 mM), mean, SD, read-out: Toxicity Maximal inhibition (%)), the inhibition at 10000 µM was found to be 77%. For the same compound, in the data set with male mice (C57BL/6) (Oral), the “BLL” value was determined as 23.3 ± 2.3 µg/dL and the “Urinary Pb (ppm)” value came out at 340 ± 28 ppm.

With cyc[Cys-βAla-Asp-βAla] [peptide 8], the “detoxification ability in poisoned E. coli (in words)” value in the data set on DH5α E. coli (compared to the benchmark compounds, FIG. 2a) was “outstanding results”. In the data set with DH5α E. coli, the “Recovery DH5α (%)” value is 279%. In addition, in the data set on HT-29 cells [1] (HT-29, FIG. 2d), the “effect of the counter cation (Ca vs. Na salt) on detoxification activity” value was “barely affected by the counter cation”. Moreover, in the data set with HT-29 cells [2] (setting [4]), the “Toxicity Maximal inhibition (%)” value is 15±5%. In addition, the Aqueous solubility result in data set [3] is reported as “soluble^b”.

Usually IC50 stands for the concentration needed to halve the response being measured. Low values mean greater potency in that assay, high ones weaker potency in that assay. Usually inhibition stands for how much of the control response was suppressed.
